Each structure is given as a SMILES string. Where only a bound is given, the exact number is not on record here.

The target of the assay is T1, GHS-R (Homo sapiens, UniProt Q92847).
T1 construct: expressed in transfected cells; host or cells: COS-7 cells
T1 sequence (Q92847 whole entry, species assumed): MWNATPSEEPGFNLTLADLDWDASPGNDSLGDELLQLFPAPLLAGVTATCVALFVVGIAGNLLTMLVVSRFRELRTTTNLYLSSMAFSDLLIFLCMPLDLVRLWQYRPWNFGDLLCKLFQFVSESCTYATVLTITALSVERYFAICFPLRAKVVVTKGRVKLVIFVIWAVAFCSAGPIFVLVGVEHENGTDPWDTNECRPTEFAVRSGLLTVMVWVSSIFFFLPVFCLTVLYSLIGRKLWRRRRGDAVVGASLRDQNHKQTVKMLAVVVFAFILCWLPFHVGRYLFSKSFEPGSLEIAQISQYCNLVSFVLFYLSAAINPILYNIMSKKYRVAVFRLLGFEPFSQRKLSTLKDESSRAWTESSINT
In words: GHS-R competition binding assay (Ki of GHS-R antagonizing compounds). As to the method:
One exemplary binding assay is as follows: GHS-R expressing COS-7 cells cultured at a density of 1×10^5 cells per well so that binding is assayed in the range of about 5-8 % binding of the radioactive ligand. For example, the cells can express an endogenous nucleic acid encoding GHS-R or an exogenous nucleic acid encoding GHS-R. Cells transfected with an exogenous nucleic acid encoding GHS-R can be used, e.g., two days, after transfection. Competition binding experiments are performed for 3 hours at 4° C. using 25 pM of ^125I-ghrelin in 0.5 ml of 50 mM HEPES buffer, pH 7.4, supplemented with 1 mM CaCl2, 5 mM MgCl2, and 0.1% (w/v) bovine serum albumin, 40 mg/ml bacitracin. Non-specific binding can be determined as the binding in the presence of […] of unlabeled ghrelin. Cells are washed twice in 0.5 ml of ice-cold buffer and then lysed with 0.5-1 ml of lysis buffer (8 M Urea, 2% NP40 in 3 M acetic acid). After washing and lysis, the bound radioactivity is counted. Assays can be run in duplicate or triplicate, e.g., to provide statistical power.
Values of the dissociation and inhibition constants (Kd and Ki) can be estimated from competition binding experiments using the equation: Kd=IC50-L and Ki=IC50/(1+L/Kd), where L is the concentration of radioactive ligand. Bmax values can be estimated from competition binding experiments using the equation Bmax=B0 IC50/[ligand], where B0 is the specifically bound radioligand.
As for `CN(C)CCS(=O)(=O)N[C@H](COCc1ccccc1)C(=O)N1CCC2(CC1)CN(S(C)(=O)=O)c1ccccc12` [Compound 128, (R)-N-(3-(benzyloxy)-1-(1-(methylsulfonyl)spiro[indoline-3,4′-piperidine]-1′-yl)-1-oxopropan-2-yl)-2-(dimethylamino)ethanesulfonamide], the Ki (commonly a dissociation constant, usually derived from enzyme kinetics or from competition with a known ligand) fell in the range of 100 to 1000 nM.
As for `CN1CCN(CCS(=O)(=O)N[C@H](COCc2ccccc2)C(=O)N2CCC3(CC2)CN(S(C)(=O)=O)c2ccccc23)CC1` [Compound 129, (R)-N-(3-(benzyloxy)-1-(1-(methylsulfonyl)spiro[indoline-3,4′-piperidine]-1′-yl)-1-oxopropan-2-yl)-2-(4-methylpiperazin-1-yl)ethanesulfonamide], the inhibitory constant (Ki) was over 1000 nM.
As for `CCN(C)CCS(=O)(=O)N[C@H](COCc1ccccc1)C(=O)N1CCC2(CC1)CN(S(C)(=O)=O)c1ccccc12` [Compound 130, (R)-N-(3-(benzyloxy)-1-(1-(methylsulfonyl)spiro[indoline-3,4′-piperidine]-1′-yl)-1-oxopropan-2-yl)-2-(ethyl(methyl)amino)ethanesulfonamide], the figure is 100 to 1000 nM; as for `CC(C)N(C)CCS(=O)(=O)N[C@H](COCc1ccccc1)C(=O)N1CCC2(CC1)CN(S(C)(=O)=O)c1ccccc12` [Compound 131, (R)-N-(3-(benzyloxy)-1-(1-(methylsulfonyl)spiro[indoline-3,4′-piperidine]-1′-yl)-1-oxopropan-2-yl)-2-(isopropyl(methyl)amino)ethanesulfonamide], 100 to 1000 nM; as for `CCN(CC)CCS(=O)(=O)N[C@H](COCc1ccccc1)C(=O)N1CCC2(CC1)CN(S(C)(=O)=O)c1ccccc12` [Compound 132, (R)-N-(3-(benzyloxy)-1-(1-(methylsulfonyl)spiro[indoline-3,4′-piperidine]-1′-yl)-1-oxopropan-2-yl)-2-(diethylamino)ethanesulfonamide], under 100 nM.
The same measure for `CCN(CCS(=O)(=O)N[C@H](COCc1ccccc1)C(=O)N1CCC2(CC1)CN(S(C)(=O)=O)c1ccccc12)C(C)C` [Compound 133, (R)-N-(3-(benzyloxy)-1-(1-(methylsulfonyl)spiro[indoline-3,4′-piperidine]-1′-yl)-1-oxopropan-2-yl)-2-(ethyl(isopropyl)amino)ethanesulfonamide]: over 1000 nM; for `CS(=O)(=O)N1CC2(CCN(C(=O)[C@@H](COCc3ccccc3)NS(=O)(=O)CCN3CCC3)CC2)c2ccccc21` [Compound 134, (R)-2-(azetidin-1-yl)-N-(3-(benzyloxy)-1-(1-(methylsulfonyl)spiro[indoline-3,4′-piperidine]-1′-yl)-1-oxopropan-2-yl)ethanesulfonamide]: over 1000 nM; for `CS(=O)(=O)N1CC2(CCN(C(=O)[C@@H](COCc3ccccc3)NS(=O)(=O)CCN3CCCCC3)CC2)c2ccccc21` [Compound 135, (R)-N-(3-(benzyloxy)-1-(1-(methylsulfonyl)spiro[indoline-3,4′-piperidine]-1′-yl)-1-oxopropan-2-yl)-2-(piperidin-1-yl)ethanesulfonamide]: 100 to 1000 nM.
`CS(=O)(=O)N1CC2(CCN(C(=O)[C@@H](COCc3ccccc3)NS(=O)(=O)CCN3CCCC3)CC2)c2ccccc21` [Compound 136, (R)-N-(3-(benzyloxy)-1-(1-(methylsulfonyl)spiro[indoline-3,4′-piperidine]-1′-yl)-1-oxopropan-2-yl)-2-(pyrrolidin-1-yl)ethanesulfonamide] registered a Ki of 100 to 1000 nM.
`CN1CCC(S(=O)(=O)N[C@H](COCc2ccccc2)C(=O)N2CCC3(CC2)CN(S(C)(=O)=O)c2ccccc23)CC1` [Compound 137, (R)-N-(3-(benzyloxy)-1-(1-(methylsulfonyl)spiro[indoline-3,4′-piperidine]-1′-yl)-1-oxopropan-2-yl)-1-methylpiperidine-4-sulfonamide] had a Ki of under 100 nM.
For `CS(=O)(=O)N1CC2(CCN(C(=O)[C@@H](COCc3ccccc3)NS(=O)(=O)CCN3CCOCC3)CC2)c2ccccc21` [Compound 138, (R)-N-(3-(benzyloxy)-1-(1-(methylsulfonyl)spiro[indoline-3,4′-piperidine]-1′-yl)-1-oxopropan-2-yl)-2-morpholinoethanesulfonamide], the inhibition constant (Ki) was over 1000 nM.
For the compound `CC(C)(C)NCCS(=O)(=O)N[C@H](COCc1ccccc1)C(=O)N1CCC2(CC1)CN(S(C)(=O)=O)c1ccccc12` [Compound 139, (R)-N-(3-(benzyloxy)-1-(1-(methylsulfonyl)spiro[indoline-3,4′-piperidine]-1′-yl)-1-oxopropan-2-yl)-2-(tert-butylamino)ethanesulfonamide], the inhibition constant Ki was in the range of 100 to 1000 nM.
Turning to `CC(C)NCCS(=O)(=O)N[C@H](COCc1ccccc1)C(=O)N1CCC2(CC1)CN(S(C)(=O)=O)c1ccccc12` [Compound 140, (R)-N-(3-(benzyloxy)-1-(1-(methylsulfonyl)spiro[indoline-3,4′-piperidine]-1′-yl)-1-oxopropan-2-yl)-2-(isopropylamino)ethanesulfonamide], the Ki was over 1000 nM.
Take `CC(C)NCCCS(=O)(=O)N[C@H](COCc1ccccc1)C(=O)N1CCC2(CC1)CN(S(C)(=O)=O)c1ccccc12` [Compound 141, (R)-N-(3-(benzyloxy)-1-(1-(methylsulfonyl)spiro[indoline-3,4′-piperidine]-1′-yl)-1-oxopropan-2-yl)-3-(isopropylamino)propane-1-sulfonamide]: the Ki is under 100 nM.
`CS(=O)(=O)N1CC2(CCN(C(=O)[C@@H](COCc3ccccc3)NS(=O)(=O)CCCN3CCOCC3)CC2)c2ccccc21` [Compound 142, (R)-N-(3-(benzyloxy)-1-(1-(methylsulfonyl)spiro[indoline-3,4′-piperidine]-1′-yl)-1-oxopropan-2-yl)-3-morpholinopropane-1-sulfonamide]: the Ki was over 1000 nM.
`CC(C)(C)NCCCS(=O)(=O)N[C@H](COCc1ccccc1)C(=O)N1CCC2(CC1)CN(S(C)(=O)=O)c1ccccc12` [Compound 143, (R)-N-(3-(benzyloxy)-1-(1-(methylsulfonyl)spiro[indoline-3,4′-piperidine]-1′-yl)-1-oxopropan-2-yl)-3-(tert-butylamino)propane-1-sulfonamide] registered a Ki of 100 to 1000 nM.
In turn, `CS(=O)(=O)N1CC2(CCN(C(=O)[C@@H](COCc3ccccc3)NS(=O)(=O)CCN3C4CCCC3CC4)CC2)c2ccccc21` [Compound 144, N-((R)-3-(benzyloxy)-1-(1-(methylsulfonyl)spiro[indoline-3,4′-piperidine]-1′-yl)-1-oxopropan-2-yl)-2-(8-azabicyclo[3.2.1]octan-8-yl)ethanesulfonamide] registered a Ki of 100 to 1000 nM.
`CN1C2CCC1CC(S(=O)(=O)N[C@H](COCc1ccccc1)C(=O)N1CCC3(CC1)CN(S(C)(=O)=O)c1ccccc13)C2` (stereo partly drawn) [Compound 145, N-((R)-3-(benzyloxy)-1-(1-(methylsulfonyl)spiro[indoline-3,4′-piperidine]-1′-yl)-1-oxopropan-2-yl)-8-methyl-8-azabicyclo[3.2.1]octane-3-sulfonamide] had a Ki of over 1000 nM.
The same measure for `CS(=O)(=O)N1CC2(CCN(C(=O)[C@@H](COCc3ccccc3)NS(=O)(=O)CCCCl)CC2)c2ccccc21` [Compound 146, (R)-N-(3-(benzyloxy)-1-(1-(methylsulfonyl)spiro[indoline-3,4′-piperidine]-1′-yl)-1-oxopropan-2-yl)-3-chloropropane-1-sulfonamide]: under 100 nM; for `CN1CCC(S(=O)(=O)N[C@H](COCc2ccccc2)C(=O)N2CCC3(C=Cc4ccccc43)CC2)CC1` [Compound 147, (R)-N-(3-(benzyloxy)-1-oxo-1-(spiro[indene-1,4′-piperidine]-1′-yl)propan-2-yl)-1-methylpiperidine-4-sulfonamide]: 100 to 1000 nM.
Compound `CCN(CC)CCCS(=O)(=O)N[C@H](COCc1ccccc1)C(=O)N1CCC2(CC1)CN(S(C)(=O)=O)c1ccccc12` [Compound 148, (R)-N-(3-(benzyloxy)-1-(1-(methylsulfonyl)spiro[indoline-3,4′-piperidine]-1′-yl)-1-oxopropan-2-yl)-3-(diethylamino)propane-1-sulfonamide] showed an inhibitory constant (Ki) of 100 to 1000 nM.
The compound `CN(C)CCCS(=O)(=O)N[C@H](COCc1ccccc1)C(=O)N1CCC2(CC1)CN(S(C)(=O)=O)c1ccccc12` [Compound 149, (R)-N-(3-(benzyloxy)-1-(1-(methylsulfonyl)spiro[indoline-3,4′-piperidine]-1′-yl)-1-oxopropan-2-yl)-3-(dimethylamino)propane-1-sulfonamide] registered a Ki of 100 to 1000 nM.
Consider `CS(=O)(=O)N1CC2(CCN(C(=O)[C@@H](COCc3ccccc3)NS(=O)(=O)CCCNC3CC3)CC2)c2ccccc21` [Compound 150, (R)-N-(3-(benzyloxy)-1-(1-(methylsulfonyl)spiro[indoline-3,4′-piperidine]-1′-yl)-1-oxopropan-2-yl)-3-(cyclopropylamino)propane-1-sulfonamide], for which the Ki was over 1000 nM.
The compound `CS(=O)(=O)N1CC2(CCN(C(=O)[C@@H](COCc3ccccc3)NS(=O)(=O)CCCN3CCCC3)CC2)c2ccccc21` [Compound 152, (R)-N-(3-(benzyloxy)-1-(1-(methylsulfonyl)spiro[indoline-3,4′-piperidine]-1′-yl)-1-oxopropan-2-yl)-3-(pyrrolidin-1-yl)propane-1-sulfonamide] came in with a Ki of under 100 nM.

The values are drawn from patent US20050261332A1, “Sulfonamides and uses thereof” (priority 2004, published 2005).
